Source: ChEMBL document CHEMBL5042522, “One- and Two-Photon Uncaging of Carbon Monoxide (CO) with Real-Time Monitoring: On-Demand Carbazole-Based Dual CO-Releasing Platform to Test over Single and Combinatorial Approaches for the Efficient Regression of Orthotopic Murine Melanoma In Vivo” (J Med Chem, 2022)

Experiments:
[1] = Photorelease ability in PBS buffer at pH 7.4 assessed as compound decomposition at 100 uM irradiated with >= 365 nm Hg lamp upto 30 mins by UV absorption spectroscopy; assay type: physicochemical; conditions: read-out: Drug degradation
B16-F10 [2] = assay: Cytotoxicity against mouse B16-F10 cells assessed as cell viability at 10 uM irradiated with >= 365 nm Hg lamp for 5 mins after 6 hrs post-treatment and further incubated for 72 hrs by MTT assay; assay type: functional; conditions: B16-F10, light or radiation study, time 78 hrs, read-out: Activity
[3] = Photolysis of compound in PBS buffer at pH 7.4 assessed as compound decomposition by measuring final photoproduct formation at 0.1 mM irradiated with >= 365 nm for 20 mins by RP-HPLC analysis; assay type: physicochemical; conditions: pH 7.4, 20 min, 100 µM
[4] = Photorelease activity in PBS buffer at pH 7.4 assessed as release of CO using 3',6'-Bis(allyloxy)-3H-spiro(isobenzofuran-1,9'-xanthen)-3-one fluorescent probe at 500 uM irradiated with >= 365 nm Hg lamp for 30 mins in presence of PdCl2 by absorption spectroscopy; assay type: physicochemical; conditions: pH 7.4, 0.5 h
B16-F10 [5] = assay: Cytotoxicity against mouse B16-F10 cells assessed as cell viability at 1.25 to 10 uM irradiated with >= 365 nm Hg lamp for 5 mins after 6 hrs post-treatment and further incubated for 72 hrs by MTT assay; assay type: functional; conditions: dose 1.25-10 µM, time 78 hrs
[6] = Drug uptake in mouse B16-F10 cells assessed as drug internalization by measuring blue fluorescence at 20 uM incubated for 4 hrs followed by propidium iodide staining based confocal laser scanning microscopy; assay type: ADME, cell-based; conditions: b16-f10, 4 h
[7] = Photorelease ability in PBS buffer at pH 7.4 assessed as compound decomposition by measuring 1-(9-ethyl-9H-carbazol-3-y1)-2,2-dihydroxyethan-l-one photoproduct formation at 100 uM measured upto 5.5 mins of irradiation with >= 365 nm Hg lamp by RP-HPLC analysis followed by 1H-NMR analysis; assay type: physicochemical; conditions: pH 7.4, 5.5 min
B16-F10 [8] = assay: Photorelease activity in mouse B16-F10 cells assessed as uncaging of active molecules of drug by measuring green fluorescence at 20 uM incubated for 4 hrs irradiated with >= 365 nm Hg lamp for 5 mins and further incubated for 4 hrs by propidium iodide staining based confocal laser scanning microscopy; assay type: functional, cell-based; conditions: time 8.0 hrs
[9] = Stability of compound in PBS buffer at pH 7.4 at 100 uM incubated for 72 hrs under dark condition in presence of cysteine by Reverse-phase HPLC analysis; assay type: physicochemical; conditions: read-out: Stability
[10] = Photorelease ability in CDCl3 assessed as compound decomposition by measuring (2,2'-(9-ethy1-9H-carbazole-3,6-chyl)bis(2-oxoacetaldehyde) photoproduct formation at 100 uM measured after 20 mins of irradiation with >= 365 nm Hg lamp by 1H-NMR spectroscopy; assay type: physicochemical
[11] = Stability of compound in PBS buffer at pH 7.4 at 100 uM incubated for 72 hrs under dark condition by RP-HPLC analysis; assay type: physicochemical; conditions: read-out: Stability
[12] = Photorelease ability in PBS buffer at pH 7.4 assessed as fast uncaging of CO at 100 uM irradiated with >= 365 nm Hg lamp for 60 mins by RP-HPLC analysis; assay type: physicochemical; conditions: pH 7.4, 1 h
[13] = Photolysis of compound in PBS buffer at pH 7.4 assessed as compound decomposition by measuring final photoproduct formation at 0.1 mM irradiated with >= 365 nm for 60 mins by RP-HPLC analysis; assay type: physicochemical; conditions: pH 7.4, 1 h, 100 µM

degraded at 0.5 h, 100 µM [1]	Drug degradation [3]	Drug degradation [7]	Drug degradation [10]	Compound	viability at 10 µM (B16-F10 [2])	Drug metabolism [4]	Activity (B16-F10 [5])	Drug uptake [6]	Drug metabolism (B16-F10 [8])	remaining at 72 h, 100 µM [9]	remaining at 72 h, 100 µM [11]	Drug metabolism [12]	Drug degradation [13]
100%				CCn1c2ccc(C(=O)C(O)O)cc2c2cc(-c3coc(=O)o3)ccc21									
				O=C(O)CCCc1ccc(N(CCCl)CCCl)cc1 [CHLORAMBUCIL]	80%								
	93%	100%	100%	CCn1c2ccccc2c2cc(-c3coc(=O)o3)ccc21		5.9 ppm	70%	Active	100%	87%	96%		
				CCn1c2ccc(C(=O)COC(=O)CCCc3ccc(N(CCCl)CCCl)cc3)cc2c2cc(-c3coc(=O)o3)ccc21		5.7 ppm	35%	Active	100%	93%	96%	Active	88%
